According to PubChem BioAssay (NCI):
Values joined by “and” are separate entries in the source; they are usually repeats but may differ in a detail not shown here. Equal values may be shown once.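 The compound was tested at five concentrations on cells cultured in 96-well plates, with a 48-hour exposure period. GI50 is the concentration that inhibits growth by half. TGI is the concentration that stops growth completely.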

Columns and labels:
Assay in all cases: NCI tumour cell line growth inhibition, 48 h
MALME-3M melanoma = tested on: MALME-3M melanoma
SK-MEL-2 melanoma = tested on: SK-MEL-2 melanoma
MOLT-4 leukemia = tested on: MOLT-4 leukemia
HL-60(TB) leukemia = tested on: HL-60(TB) leukemia
SK-MEL-28 melanoma = tested on: SK-MEL-28 melanoma
HCC-2998 colon = tested on: HCC-2998 colon
OVCAR-4 ovarian = tested on: OVCAR-4 ovarian
RPMI-8226 leukemia = tested on: RPMI-8226 leukemia
SNB-19 CNS = tested on: SNB-19 CNS
NCI-H460 lung = tested on: NCI-H460 lung
SW-620 colon = tested on: SW-620 colon
CAKI-1 renal = tested on: CAKI-1 renal
UACC-62 melanoma = tested on: UACC-62 melanoma
UACC-257 melanoma = tested on: UACC-257 melanoma
786-0 renal = tested on: 786-0 renal
HT29 colon = tested on: HT29 colon
RXF 393 renal = tested on: RXF 393 renal
HCT-116 colon = tested on: HCT-116 colon
SF-539 CNS = tested on: SF-539 CNS
CCRF-CEM leukemia = tested on: CCRF-CEM leukemia
SNB-78 CNS = tested on: SNB-78 CNS
KM20L2 colon = tested on: KM20L2 colon
NCI-H522 lung = tested on: NCI-H522 lung
SF-295 CNS = tested on: SF-295 CNS
SK-OV-3 ovarian = tested on: SK-OV-3 ovarian
A498 renal = tested on: A498 renal
DLD-1 colon = tested on: DLD-1 colon
OVCAR-5 ovarian = tested on: OVCAR-5 ovarian
U251 CNS = tested on: U251 CNS
DMS 273 small cell lung = tested on: DMS 273 small cell lung

COc1cccc2c1C(=O)c1c(O)c3c(c(O)c1C2=O)C[C@@](O)(C(C)O)C[C@@H]3OC1CC(N)C(O)C(C)O1 (some centres undefined)
GI50 (MALME-3M melanoma): 0.392 µM | TGI (MALME-3M melanoma): 1.72 µM and 1.93 µM | GI50 (SK-MEL-2 melanoma): 1.59 µM | TGI (SK-MEL-2 melanoma): 3.5 µM and 3.45 µM | GI50 (MOLT-4 leukemia): 0.0811 µM | TGI (HL-60(TB) leukemia): 1.13 µM and 1.29 µM | GI50 (SK-MEL-28 melanoma): 1.93 µM | TGI (SK-MEL-28 melanoma): 4.05 µM and 7.36 µM | GI50 (HCC-2998 colon): 2.26 µM | TGI (HCC-2998 colon): 5.26 µM and 7.66 µM | GI50 (OVCAR-4 ovarian): 13.4 µM | TGI (OVCAR-4 ovarian): 35.2 µM | GI50 (RPMI-8226 leukemia): 0.289 µM and 0.502 µM | TGI (RPMI-8226 leukemia): 2.53 µM and 13 µM | GI50 (SNB-19 CNS): 0.392 µM | TGI (SNB-19 CNS): 7.81 µM and 5.57 µM | TGI (NCI-H460 lung): 2.29 µM and 6.95 µM | GI50 (SW-620 colon): 0.881 µM | TGI (SW-620 colon): 8.28 µM and 21.4 µM | TGI (CAKI-1 renal): 3.16 µM and 3.53 µM | TGI (UACC-62 melanoma): 3.01 µM and 3.29 µM | GI50 (UACC-257 melanoma): 2.41 µM | TGI (UACC-257 melanoma): 4.2 µM and 9.17 µM | TGI (786-0 renal): 4.11 µM | GI50 (HT29 colon): 2.78 µM | TGI (HT29 colon): 36.6 µM | TGI (RXF 393 renal): 5.13 µM and 6.06 µM | GI50 (HCT-116 colon): 1.38 µM | TGI (HCT-116 colon): 4.17 µM and 17.8 µM | GI50 (SF-539 CNS): 0.665 µM | TGI (SF-539 CNS): 4.77 µM and 3.63 µM | GI50 (CCRF-CEM leukemia): 0.254 µM | TGI (CCRF-CEM leukemia): 1.33 µM | TGI (SNB-78 CNS): 7.32 µM and 8.53 µM | GI50 (KM20L2 colon): 4.52 µM | TGI (KM20L2 colon): 42.9 µM | GI50 (NCI-H522 lung): 0.228 µM | TGI (NCI-H522 lung): 2.34 µM and 1.82 µM | TGI (SF-295 CNS): 6.29 µM and 7.17 µM | TGI (SK-OV-3 ovarian): 8.2 µM and 18.6 µM | GI50 (A498 renal): 0.776 µM | TGI (A498 renal): 8.09 µM and 4.62 µM | GI50 (DLD-1 colon): 6.11 µM | TGI (DLD-1 colon): > 100 µM | GI50 (OVCAR-5 ovarian): 3.69 µM | TGI (OVCAR-5 ovarian): 9.41 µM and 19.7 µM | GI50 (U251 CNS): 0.705 µM | TGI (U251 CNS): 7.87 µM and 3.44 µM | TGI (DMS 273 small cell lung): 7.24 µM and 6.65 µM
